Experimental data taken from PubChem BioAssay (NCI).
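1) Cells in 96-well plates. 2) Compound, 48 h, 5 concentrations. 3) Linear interpolation between surrounding doses. 4) Unreached endpoint = highest concentration. The concentration for 50% growth inhibition is given as GI50. TGI is the concentration that stops growth completely.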

Legend:
Test in all cases: NCI-60 cell line screen, 48 h
[1] = system: SF-268 CNS
[2] = system: SF-295 CNS
[3] = system: KM12 colon
[4] = system: SK-MEL-5 melanoma
[5] = system: NCI-H23 lung
[6] = system: SNB-75 CNS
[7] = system: HL-60(TB) leukemia
[8] = system: SK-OV-3 ovarian
[9] = system: HS 578T breast
[10] = system: SNB-19 CNS
[11] = system: OVCAR-4 ovarian
[12] = system: T-47D breast
[13] = system: A498 renal
[14] = system: OVCAR-5 ovarian
[15] = system: PC-3 prostate
[16] = system: HCT-116 colon
[17] = system: UACC-257 melanoma
[18] = system: NCI-H522 lung
[19] = system: U251 CNS
[20] = system: MDA-MB-231 breast
[21] = system: BT-549 breast
[22] = system: SN12C renal
[23] = system: NCI/ADR-RES ovarian
[24] = system: SW-620 colon
[25] = system: UO-31 renal
[26] = system: NCI-H226 lung
[27] = system: EKVX NSCLC
[28] = system: SK-MEL-2 melanoma
[29] = system: MOLT-4 leukemia
[30] = system: RXF 393 renal
[31] = system: HT29 colon
[32] = system: SK-MEL-28 melanoma
[33] = system: NCI-H460 lung
[34] = system: K-562 leukemia
[35] = system: IGROV1 ovarian
[36] = system: RPMI-8226 leukemia
[37] = system: LOX IMVI melanoma
[38] = system: HCT-15 colon
[39] = system: UACC-62 melanoma
[40] = system: HOP-62 NSCLC
[41] = system: OVCAR-8 ovarian
[42] = system: OVCAR-3 ovarian
[43] = system: MCF7 breast
[44] = system: DU-145 prostate
[45] = system: M14 melanoma
[46] = system: HCC-2998 colon
[47] = system: SF-539 CNS
[48] = system: MDA-MB-435
[49] = system: HOP-92 NSCLC
[50] = system: ACHN renal
[51] = system: MALME-3M melanoma
[52] = system: 786-0 renal
[53] = system: COLO 205 colon
[54] = system: TK-10 renal
[55] = system: CAKI-1 renal
[56] = system: SR leukemia
[57] = system: A549 NSCLC

Question: `COc1cc2c3c(n(CCCN)c(=O)c2cc1OC)-c1ccccc1C3=O` was tested. Which GI50 [1] did it give?
Answer: 1.71 µM

Question: What about the TGI [1] of the same compound?
Answer: > 21.6 µM

Question: And the GI50 [2]?
Answer: 0.0709 µM

Question: What about the TGI [2] of the same compound?
Answer: 5.24 µM

Question: What about the GI50 [3] of the same compound?
Answer: 0.517 µM

Question: And the TGI [3]?
Answer: 2.5 µM

Question: And the GI50 [4]?
Answer: 2.02 µM

Question: And the TGI [4]?
Answer: 19.8 µM

Question: What about the GI50 [5] of the same compound?
Answer: 1.25 µM

Question: And the TGI [5]?
Answer: 6.03 µM

Question: What about the GI50 [6] of the same compound?
Answer: 4.6 µM

Question: And the TGI [6]?
Answer: 11.6 µM

Question: And the GI50 [7]?
Answer: 5.09 µM

Question: And the TGI [7]?
Answer: > 100 µM

Question: What about the GI50 [8] of the same compound?
Answer: 5.62 µM

Question: And the TGI [8]?
Answer: 23 µM

Question: And the GI50 [9]?
Answer: 11.1 µM

Question: And the TGI [9]?
Answer: 46.9 µM

Question: What about the GI50 [10] of the same compound?
Answer: 2.95 µM

Question: What about the TGI [10] of the same compound?
Answer: > 42 µM

Question: What about the GI50 [11] of the same compound?
Answer: 2.29 µM

Question: And the TGI [11]?
Answer: 12.7 µM

Question: And the GI50 [12]?
Answer: 7.18 µM

Question: And the TGI [12]?
Answer: 39 µM

Question: What about the GI50 [13] of the same compound?
Answer: 1.9 µM

Question: And the TGI [13]?
Answer: 9.51 µM

Question: And the GI50 [14]?
Answer: 14.3 µM

Question: And the TGI [14]?
Answer: 29.2 µM

Question: What about the GI50 [15] of the same compound?
Answer: 0.723 µM

Question: What about the TGI [15] of the same compound?
Answer: 2.69 µM

Question: What about the GI50 [16] of the same compound?
Answer: 0.0101 µM

Question: What about the TGI [16] of the same compound?
Answer: 0.172 µM

Question: What about the GI50 [17] of the same compound?
Answer: 6.3 µM

Question: And the TGI [17]?
Answer: 27.8 µM

Question: What about the GI50 [18] of the same compound?
Answer: 0.339 µM

Question: And the TGI [18]?
Answer: 22.7 µM

Question: And the GI50 [19]?
Answer: 0.557 µM

Question: What about the TGI [19] of the same compound?
Answer: 3.43 µM

Question: And the GI50 [20]?
Answer: 1.23 µM

Question: And the TGI [20]?
Answer: 3.02 µM

Question: What about the GI50 [21] of the same compound?
Answer: 4.85 µM

Question: And the TGI [21]?
Answer: 13.9 µM

Question: What about the GI50 [22] of the same compound?
Answer: 0.934 µM

Question: And the TGI [22]?
Answer: 5.08 µM

Question: What about the GI50 [23] of the same compound?
Answer: 2.28 µM

Question: What about the TGI [23] of the same compound?
Answer: 9.75 µM

Question: And the GI50 [24]?
Answer: 1.89 µM

Question: What about the TGI [24] of the same compound?
Answer: > 100 µM

Question: And the GI50 [25]?
Answer: 1.8 µM

Question: And the TGI [25]?
Answer: 13.1 µM

Question: And the GI50 [26]?
Answer: 4.31 µM

Question: What about the TGI [26] of the same compound?
Answer: 16.1 µM

Question: And the GI50 [27]?
Answer: 3.85 µM

Question: And the TGI [27]?
Answer: 10.3 µM

Question: What about the GI50 [28] of the same compound?
Answer: 14.3 µM

Question: What about the TGI [28] of the same compound?
Answer: 35.5 µM

Question: What about the TGI [29] of the same compound?
Answer: 7.12 µM

Question: What about the GI50 [30] of the same compound?
Answer: 1.04 µM

Question: What about the TGI [30] of the same compound?
Answer: 2.56 µM

Question: And the GI50 [31]?
Answer: 0.164 µM

Question: And the GI50 [32]?
Answer: 9.99 µM

Question: And the TGI [32]?
Answer: > 46.8 µM

Question: And the GI50 [33]?
Answer: 0.176 µM

Question: And the GI50 [34]?
Answer: 0.911 µM

Question: What about the GI50 [35] of the same compound?
Answer: 1.45 µM

Question: And the TGI [35]?
Answer: > 100 µM

Question: What about the GI50 [36] of the same compound?
Answer: 0.0772 µM

Question: What about the GI50 [37] of the same compound?
Answer: 0.125 µM

Question: And the TGI [37]?
Answer: 1.02 µM

Question: And the GI50 [38]?
Answer: 1 µM

Question: And the GI50 [39]?
Answer: 1.73 µM

Question: And the TGI [39]?
Answer: 16 µM

Question: What about the GI50 [40] of the same compound?
Answer: 0.351 µM

Question: What about the TGI [40] of the same compound?
Answer: 2.96 µM

Question: What about the GI50 [41] of the same compound?
Answer: 0.455 µM

Question: And the TGI [41]?
Answer: 6.65 µM

Question: And the GI50 [42]?
Answer: 0.26 µM

Question: What about the TGI [42] of the same compound?
Answer: 4.2 µM

Question: And the GI50 [43]?
Answer: 0.316 µM

Question: And the TGI [43]?
Answer: 2.11 µM

Question: What about the GI50 [44] of the same compound?
Answer: 1.83 µM

Question: And the TGI [44]?
Answer: 4.81 µM

Question: What about the GI50 [45] of the same compound?
Answer: 0.199 µM

Question: And the TGI [45]?
Answer: 2.28 µM

Question: And the GI50 [46]?
Answer: 0.531 µM

Question: And the TGI [46]?
Answer: 2.11 µM

Question: What about the GI50 [47] of the same compound?
Answer: 1.25 µM

Question: What about the TGI [47] of the same compound?
Answer: 5.23 µM

Question: What about the GI50 [48] of the same compound?
Answer: 0.755 µM

Question: And the TGI [48]?
Answer: 18.9 µM

Question: What about the GI50 [49] of the same compound?
Answer: 15.2 µM

Question: And the TGI [49]?
Answer: 36.7 µM

Question: What about the GI50 [50] of the same compound?
Answer: 1.14 µM

Question: And the TGI [50]?
Answer: 8.1 µM

Question: And the GI50 [51]?
Answer: 0.0918 µM

Question: What about the TGI [51] of the same compound?
Answer: 17.5 µM

Question: What about the GI50 [52] of the same compound?
Answer: 0.396 µM

Question: What about the TGI [52] of the same compound?
Answer: 2.02 µM

Question: What about the GI50 [53] of the same compound?
Answer: 0.472 µM

Question: And the TGI [53]?
Answer: 5.72 µM

Question: What about the GI50 [54] of the same compound?
Answer: 2.14 µM

Question: What about the TGI [54] of the same compound?
Answer: 6.31 µM

Question: What about the GI50 [55] of the same compound?
Answer: 0.282 µM

Question: What about the TGI [55] of the same compound?
Answer: 2.94 µM

Question: For `Fc1ccc2[nH]cc(-c3nc(-c4c[nH]c5ncccc45)cs3)c2c1`, which GI50 [3] is on record?
Answer: 4.65 µM

Question: What about the TGI [3] of the same compound?
Answer: > 100 µM

Question: And the GI50 [6]?
Answer: 1.58 µM

Question: And the TGI [6]?
Answer: > 100 µM

Question: And the GI50 [9]?
Answer: 3.15 µM

Question: What about the TGI [9] of the same compound?
Answer: > 100 µM

Question: And the GI50 [13]?
Answer: 2.07 µM

Question: And the TGI [13]?
Answer: > 100 µM

Question: And the GI50 [14]?
Answer: > 100 µM

Question: And the TGI [14]?
Answer: > 100 µM

Question: And the GI50 [17]?
Answer: > 100 µM

Question: And the TGI [17]?
Answer: > 100 µM

Question: What about the GI50 [24] of the same compound?
Answer: > 100 µM

Question: What about the TGI [24] of the same compound?
Answer: > 100 µM

Question: And the GI50 [25]?
Answer: 0.478 µM

Question: And the TGI [25]?
Answer: > 100 µM

Question: What about the GI50 [27] of the same compound?
Answer: 3.34 µM

Question: And the TGI [27]?
Answer: > 100 µM

Question: And the GI50 [28]?
Answer: > 100 µM

Question: And the TGI [28]?
Answer: > 100 µM

Question: And the GI50 [30]?
Answer: > 100 µM

Question: And the TGI [30]?
Answer: > 100 µM

Question: What about the GI50 [56] of the same compound?
Answer: 2.79 µM

Question: What about the TGI [56] of the same compound?
Answer: > 100 µM

Question: And the GI50 [32]?
Answer: > 100 µM

Question: And the TGI [32]?
Answer: > 100 µM

Question: And the GI50 [33]?
Answer: 2.11 µM

Question: What about the TGI [33] of the same compound?
Answer: > 100 µM

Question: What about the GI50 [34] of the same compound?
Answer: 5.03 µM

Question: And the TGI [34]?
Answer: > 100 µM

Question: And the GI50 [35]?
Answer: 4.46 µM

Question: And the TGI [35]?
Answer: > 100 µM

Question: What about the GI50 [39] of the same compound?
Answer: > 100 µM

Question: And the TGI [39]?
Answer: > 100 µM

Question: And the GI50 [43]?
Answer: 3.04 µM

Question: And the TGI [43]?
Answer: > 100 µM

Question: And the GI50 [46]?
Answer: > 100 µM

Question: What about the TGI [46] of the same compound?
Answer: > 100 µM

Question: And the GI50 [57]?
Answer: 2.65 µM

Question: What about the TGI [57] of the same compound?
Answer: > 100 µM

Question: What about the GI50 [48] of the same compound?
Answer: 12.5 µM

Question: What about the TGI [48] of the same compound?
Answer: > 100 µM

Question: And the GI50 [53]?
Answer: 1.7 µM

Question: What about the TGI [53] of the same compound?
Answer: > 100 µM

Question: And the GI50 [54]?
Answer: > 100 µM

Question: And the TGI [54]?
Answer: > 100 µM
